# Paper PMC12439166, “Dietary flavonoids form supramolecular assemblies, alter biochemistry, and enhance cell resilience” (Frontiers in Nutrition, 2025)
# Columns and labels:
# [1] = target: T1, Lysine demethylase 4C (KDM4C) (Homo sapiens, UniProt Q9H3R0); experiment: Enzyme activity assay (SAMDI-MS), KDM4C; assay type: biochemical; conditions: 10 concentrations, 5 nM to 100 μM, compounds incubated with enzyme 30 min, result in words
# T1 sequence (Q9H3R0 1-1056): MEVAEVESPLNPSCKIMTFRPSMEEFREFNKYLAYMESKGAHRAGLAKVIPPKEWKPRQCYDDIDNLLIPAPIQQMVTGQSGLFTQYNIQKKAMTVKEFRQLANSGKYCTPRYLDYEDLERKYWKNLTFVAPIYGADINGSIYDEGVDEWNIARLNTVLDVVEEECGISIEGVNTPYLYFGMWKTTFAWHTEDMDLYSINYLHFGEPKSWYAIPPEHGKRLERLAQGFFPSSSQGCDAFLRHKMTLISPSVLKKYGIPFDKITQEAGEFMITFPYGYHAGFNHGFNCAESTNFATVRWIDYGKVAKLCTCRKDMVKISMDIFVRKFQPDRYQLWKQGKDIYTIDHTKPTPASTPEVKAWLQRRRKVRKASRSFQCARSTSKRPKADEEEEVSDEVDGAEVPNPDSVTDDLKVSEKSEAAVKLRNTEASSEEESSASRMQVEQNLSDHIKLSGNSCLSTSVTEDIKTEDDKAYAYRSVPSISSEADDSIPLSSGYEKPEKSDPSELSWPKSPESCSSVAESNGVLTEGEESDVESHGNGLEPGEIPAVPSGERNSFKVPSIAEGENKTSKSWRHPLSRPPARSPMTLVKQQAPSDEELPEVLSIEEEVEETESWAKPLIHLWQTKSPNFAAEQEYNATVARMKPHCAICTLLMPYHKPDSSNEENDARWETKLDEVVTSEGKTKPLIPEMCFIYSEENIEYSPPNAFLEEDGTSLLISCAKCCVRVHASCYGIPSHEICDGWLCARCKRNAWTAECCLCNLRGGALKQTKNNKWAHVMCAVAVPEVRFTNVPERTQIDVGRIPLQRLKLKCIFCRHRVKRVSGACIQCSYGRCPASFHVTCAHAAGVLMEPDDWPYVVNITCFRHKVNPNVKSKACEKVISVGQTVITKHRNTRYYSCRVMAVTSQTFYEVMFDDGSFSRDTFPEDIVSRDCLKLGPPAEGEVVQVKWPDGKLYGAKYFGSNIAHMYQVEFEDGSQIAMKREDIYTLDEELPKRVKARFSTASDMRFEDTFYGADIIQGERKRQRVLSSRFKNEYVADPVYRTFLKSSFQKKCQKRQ
# Procedure: (§1) Enzyme screens were performed by SAMDI Tech (contract research organization); enzyme assays were performed in a 20 μL volume in 384-well low-volume polypropylene microtiter plates (Greiner Bio-One) at room temperature. The enzymes [Arginase 1 (ARG1), Lysine demethylase 4C (KDM4C), MAP/microtubule affinity-regulating kinase 4 (MARK4), Histone-Lysine N-methyltransferase (NSD2), Tyrosine-protein phosphatase non-receptor type 1 (PTP1B), and Sirtuin-3 (SIRT3)] were incubated with compounds for 30 min prior to initiation of the reaction by the addition of substrate and cofactors (if required). Reactions were quenched by the addition of 0.5% formic acid (final) with subsequent neutralization using 1% sodium bicarbonate (final). For SAMDI MS analysis, 2 μL of each reaction was transferred using a 384-channel automated liquid handler to SAMDI biochip arrays functionalized with a neutravidin-presenting self-assembled monolayer. The preparation of SAMDI biochip arrays has been previously described ([41], [42], [49]). The SAMDI arrays were incubated for 1 h in a humidified chamber to allow specific immobilization of the biotinylated substrates and products; they were then purified by washing with ultrafiltered water (50 μL/spot) and dried with compressed air. A matrix comprising α-Cyano-4-hydroxycinnamic acid in 80% acetonitrile: 20% aqueous ammonium citrate (10 mg/mL final) was applied in an automated format by dispensing 50 nL to each spot in the array. SAMDI MS was performed using reflector positive mode on an AB Sciex TOF-TOF 5800 System (AB Sciex, Framingham, MA) with 400 shots/spot analyzed in a random raster sampling. For data analysis, the area under the curves (AUCs) for the product peak and substrate peak were calculated using the TOF/TOF Series Explorer (AB Sciex), and the amount of product formed was calculated using the equation AUC product / (AUC product + AUC Substrate). Negative controls were pre-quenched with 0.5% formic acid (final). Lysozyme assay was performed using the manufacturer’s instructions (Biovision Lysozyme inhibitor screening kit K237). Flavonoids were acquired from Sigma-Aldrich and Seleckchem.
# (§2) IC50 values of enzyme inhibition. Inhibition of the enzymes was measured at 10 concentration values in the range of 5 nM to 100 μM for each compound and enzyme, with two technical replicates; the percent inhibition values were determined by SAMDI software. Sigmoidal curves were fitted to the percent inhibition vs log10 (concentration) series, and IC50 values were determined at the crossing point of 50 % inhibition. Manual verification of the fits and the IC50 values was performed. The resulting IC50 values fell into the following categories: (a) within the assayed range of 5nM to 100μM (26 % of fits), (b) IC50 could be extrapolated, IC50 > 100μM (12 % of fits), or (c) fitting was not possible because all values were at baseline (62 % of fits). Compound efficacy ranking. First, for each IC50 value per compound and enzyme, a Z-score was calculated based on the log10 (IC50) value and that of the compounds that produced a successful readout for enzyme i , according to Equation 1: […]
# [2] = tested on: human dermal fibroblasts; experiment: Protection of fibroblasts against ultraviolet radiation, cell viability by CellTiter-Glo; assay type: cell-based; conditions: 1 h pretreatment, 254 nm UV 20 mJ/cm^2, viability 24 h post-irradiation; result in words
# Procedure: Human fibroblasts were obtained from Cell Applications Inc (Cat. # 106-05a) and were maintained in Dulbecco’s Modified Eagle medium (DMEM, Corning, Cat. #10-013-CV) with 10% fetal bovine serum (Gibco, Cat. #10082147) and 1% penicillin/streptomycin (Gibco, Cat. # 15070-063) in a humidified incubator with 5% CO2 at 37 °C. For ultraviolet radiation, fibroblasts were seeded in a 96-well plate at a density of 25,000 cells/well and maintained at 37 °C for 24 h. Cells were washed once with Hanks’ balanced salt solution (HBSS, Gibco, Cat. #14025-092), then treated for 1 h with different concentrations of compounds prepared in HBSS. Vitamin C (Sigma, Cat. # A5960) served as a positive control. Treated cells were exposed to ultraviolet light (UVP cross-linker, CL1000, 254 nm UV, 8 watts) at a total dose of 20 mJ/cm^2. Following irradiation, the HBSS was replaced with culture medium containing the same concentration of compounds as before irradiation, and cells were again maintained at 37 °C. Cell viability was measured at 24 h post-irradiation using CellTiter-Glo according to the manufacturer’s instructions (Promega, Cat.# G7571). Results were expressed as relative cell viability (%) with respect to control cells (cells without ultraviolet irradiation or compound treatment).
# [3] = target: T2, Lysozyme (Gallus gallus, UniProt P00698); experiment: Lysozyme assay (Biovision Lysozyme inhibitor screening kit K237); assay type: biochemical; conditions: 10 concentrations, 5 nM to 100 μM, result in words
# T2 construct: purchased Biovision K237
# Procedure: as §1, §2
# T2 sequence (P00698 19-147): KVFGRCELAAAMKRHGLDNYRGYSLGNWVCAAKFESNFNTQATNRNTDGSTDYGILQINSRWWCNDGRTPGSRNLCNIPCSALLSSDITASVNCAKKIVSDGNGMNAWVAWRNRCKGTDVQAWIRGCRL
SMILES,"inhibition of enzyme activity, KDM4C [1]",protection against the loss of cell viability caused by UV radiation [2],"inhibition of enzyme activity, Lysozyme [3]","inhibition of enzyme activity, KDM4C ([1]; listed as Quercetin)","inhibition of enzyme activity, KDM4C ([1]; listed as Quercitin)","inhibition of enzyme activity, Lysozyme ([3]; listed as Quercetin)","inhibition of enzyme activity, Lysozyme ([3]; listed as Quercitin)"
O=c1c(O[C@@H]2O[C@H](CO)[C@@H](O)[C@H](O)[C@H]2O)c(-c2ccc(O)c(O)c2)oc2cc(O)cc(O)c12 [isoquercitrin],blocked,concentration-dependent protection,blocked,,,,
C[C@@H]1O[C@@H](Oc2c(-c3ccc(O)c(O)c3)oc3cc(O)cc(O)c3c2=O)[C@H](O)[C@H](O)[C@H]1O [quercitrin],blocked,concentration-dependent protection,blocked,,,,
O=c1c(O)c(-c2ccc(O)c(O)c2)oc2cc(O)cc(O)c12 [quercetin],blocked,concentration-dependent protection,blocked,inhibited,concentration-dependent inhibition,inhibited,concentration-dependent inhibition
